Assays:
InsR = target: T1, InsR (Homo sapiens, UniProt P06213); test: Tyrosine kinase assay (Kinase-Glo or AlphaScreen), InsR; conditions: biochemical tyrosine kinase assay
T1 construct: 6×His- or GST-tagged kinase domain fragments of the corresponding RTKs expressed in baculovirus system; host or cells: baculovirus system
Method in brief: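 Luminescence of remaining ATP (Kinase-Glo) or anti-phosphotyrosine AlphaScreen proximity signal served as read-out. Reactions held purified tagged kinase domain, poly(Glu-Tyr) substrate and 10 μM ATP at pH 7.5. IC50 values came from non-linear regression fits.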

[1] = tested on: CHO (chinese hamster ovary); test: Cell proliferation inhibition, Cell Titer-Glo, CHO; type: cell-based; conditions: Cricetulus griseus; cell proliferation assay, CHO cells
Method: (§1) IGF1R and other tyrosine kinase inhibitors can inhibit the proliferation of certain cancer cell lines indicating their possible therapeutic utility for treating the corresponding cancer types. Cancer cell lines of interest and control normal lines, including CHO, HEK293, BA/F3, MM1, H929, COLO205, PC3, DU145, MCF7, Panc1, ACHN, Hep G2, H460, K562, TT, U87-G, CAOV-3, SK-MEL5, Karpas 299, are plated in white, clear-bottomed 384-well cell culture plates at 2500-5000 cells per well and supplied with dilutions of tested compounds After a desired period of time (typically 3 days), the number of viable cells is quantitated by using Cell Titer-Glo Luminescent Cell Viability Assay (Promega), a cell proliferation assay system based on detection of total amount of ATP present as a measure of cell metabolic activity. The plated cells are mixed with the Cell Titer-Glo developing reagent and counted in a luminescence multiwell plate reader according to the standard manufacturer's protocol to generate IC50 curves for cell proliferation inhibition.
(§2) IGF1R and other tyrosine kinase inhibitors can inhibit the proliferation of certain cancer cell lines indicating their possible therapeutic utility for treating the corresponding cancer types. Cancer cell lines of interest and control normal lines, including CHO, HEK293, BA/F3, COLO205, PC3, DU145, MCF7, Panc1, ACHN, Hep G2, H460, K562, TT, U87-MG, CAOV-3, SK-MEL5, Karpas 299 and human multiple myeloma cell lines H929, MM1s, MM1r, UTMC2, CPM2, KMS11, My5, KMS12PE, My7, JJN3, KMS18, U266, SKMM2, RPMI-8226 are plated in white, clear-bottomed 384-well cell culture plates at 2500-5000 cells per well and supplied with dilutions of tested compounds After a desired period of time (typically 3 days), the number of viable cells is quantitated by using Cell Titer-Glo Luminescent Cell Viability Assay (Promega), a cell proliferation assay system based on detection of total amount of ATP present as a measure of cell metabolic activity. The plated cells are mixed with the Cell Titer-Glo developing reagent and counted in a luminescence multiwell plate reader according to the standard manufacturer's protocol to generate IC50 curves for cell proliferation inhibition. Results are typically reported as percent of growth (% viability =(OD72h(compound)−ODday0))/(OD72h(no compound)−ODday0). Alternatively, viable cells are quantitated by using the conventional colorimetric MTT assay. The MTT assay is based on the cleavage of the yellow tetrazolium salt MTT to purple formazan crystal by metabolic active cells. The formazan is then solubilized, and the concentration determined by optical density at 570 nm. The cells plated and incubated with a compound as described above are supplemented with the solution of MTT and incubated for 2-3 hours. The growth medium is removed and dimethyl sulfoxide is added into each well to dissolve the formazan. The absorbance is measured on an ELISA plate reader with a test wavelength of 570 nm and a background subtraction wavelength of 630 nm to obtain sample signal (OD570-OD630). […] The results are reported in terms of IC50 value for a particular compound and a cell line in the standard 3-day proliferation assay using Cell Titer-Glo. […] The results are reported in terms of IC50 value for a particular compound and a cell line in the standard 3-day proliferation assay using MTT assay.

[2] = tested on: HEK293 (human normal embryonic kidney); test: Cell proliferation inhibition, Cell Titer-Glo, HEK293; type: cell-based; conditions: cell proliferation assay, HEK293 cells, read-out: HEK 293 IC50
Method: as §1, §2

T1 sequence (P06213 1023-1298 limits assumed, species assumed): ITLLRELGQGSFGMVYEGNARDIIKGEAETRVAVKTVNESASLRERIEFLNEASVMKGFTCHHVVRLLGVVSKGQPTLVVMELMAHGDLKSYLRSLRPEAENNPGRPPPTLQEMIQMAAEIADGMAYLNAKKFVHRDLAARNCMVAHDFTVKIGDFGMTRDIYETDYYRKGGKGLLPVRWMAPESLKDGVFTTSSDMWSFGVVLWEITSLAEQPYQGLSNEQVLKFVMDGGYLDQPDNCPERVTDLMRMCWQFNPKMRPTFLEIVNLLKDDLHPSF

Row | SMILES | IC50 (InsR) | IC50 [1] | IC50 [2]
1 | CCN1CCC(N2C(=O)c3cc4nc(-c5c(NC[C@@H](O)COc6ccc(C)cc6C)cc[nH]c5=O)[nH]c4cc3C2=O)CC1 [compound 143] | 0.5 to 5 µM | > 15 µM | > 15 µM
2 | CN1CCC(N2C(=O)c3cc4nc(-c5c(NC[C@@H](O)COc6cccc(OC(F)(F)C(F)F)c6)cc[nH]c5=O)[nH]c4cc3C2=O)CC1 [compound 91] | 0.5 to 5 µM |  | 
3 | O=C1c2cc3nc(-c4c(NC[C@@H](O)c5cccc(Cl)c5)cc[nH]c4=O)[nH]c3cc2C(=O)N1[C@@H]1CN2CCC1CC2 [compound 33] | < 0.5 µM |  | 
4 | CCN1CCC(N2Cc3cc4nc(-c5c(NC[C@@H](O)COc6ccc(C)cc6C)cc[nH]c5=O)[nH]c4cc3C2=O)CC1 [compound 144] | 0.5 to 5 µM | 5 to 15 µM | 5 to 15 µM
5 | C[C@H](O)CN1C(=O)c2cc3nc(-c4c(NC[C@@H](O)c5cccc(Cl)c5)cc[nH]c4=O)[nH]c3cc2C1=O [compound 31] | 0.5 to 5 µM |  | 5 to 15 µM
6 | Cc1ccc(OC[C@@H](O)CNc2cc[nH]c(=O)c2-c2nc3cc4c(cc3[nH]2)C(=O)N(C2CCN(C)CC2)C4=O)c(C)c1 [compound 64] | 0.5 to 5 µM |  | 
7 | O=C1c2cc3nc(-c4c(NC[C@@H](O)c5cccc(Cl)c5)cc[nH]c4=O)[nH]c3cc2C(=O)N1CCc1ccncc1 [compound 28] | 5 to 15 µM |  | 
8 | Cc1ncsc1CCN1C(=O)c2cc3nc(-c4c(NC[C@@H](O)c5cccc(Cl)c5)cc[nH]c4=O)[nH]c3cc2C1=O [compound 32] | > 15 µM |  | 
9 | Cc1ccc(Cl)c(C)c1OC[C@H](O)CNc1cc[nH]c(=O)c1-c1nc2cc3c(cc2[nH]1)C(=O)N(C1CCN(C)CC1)C3=O [compound 111] | 0.5 to 5 µM |  | 
10 | O=C1c2cc3nc(-c4c(NC[C@@H](O)c5cccc(Cl)c5)cc[nH]c4=O)[nH]c3cc2C(=O)N1C[C@@H]1CCCO1 [compound 29] | > 15 µM |  | 
11 | CN1CCC(N2C(=O)c3cc4nc(-c5c(NC[C@@H](O)COc6cccc(-c7ccccc7)c6)cc[nH]c5=O)[nH]c4cc3C2=O)CC1 [compound 89] | 0.5 to 5 µM |  | 
12 | CN1CCC(N2C(=O)c3cc4nc(-c5c(N[C@H](CO)Cc6c[nH]cn6)cc[nH]c5=O)[nH]c4cc3C2=O)CC1 [compound 2] | > 15 µM |  | 
13 | CC(C)(CO)CN1C(=O)c2cc3nc(-c4c(NC[C@@H](O)c5cccc(Cl)c5)cc[nH]c4=O)[nH]c3cc2C1=O [compound 26] | 5 to 15 µM |  | 
14 | COc1cccc(OCC(O)CNc2cc[nH]c(=O)c2-c2nc3cc4c(cc3[nH]2)C(=O)N(C2CCN(C)CC2)C4=O)c1 (stereo not drawn) [compound 6] | 0.5 to 5 µM |  | 
15 | Cc1cc(C)c(OC[C@H](O)CNc2cc[nH]c(=O)c2-c2nc3cc4c(cc3[nH]2)C(=O)N(C2CCN(C)CC2)C4=O)c(CS(C)(=O)=O)c1 [compound 84] | 0.5 to 5 µM |  | 
16 | Cc1cc(C)c(OC[C@H](O)CNc2cc[nH]c(=O)c2-c2nc3cc4c(cc3[nH]2)C(=O)N(C2CCN(C)CC2)C4=O)cc1Cl [compound 108] | 0.5 to 5 µM |  | 5 to 15 µM
17 | Cc1ccc(OC[C@H](O)CNc2cc[nH]c(=O)c2-c2nc3cc4c(cc3[nH]2)C(=O)N(C2CCN(C)CC2)C4=O)cc1Cl [compound 99] | 0.5 to 5 µM |  | 
18 | COc1ccc(OC[C@H](O)CNc2cc[nH]c(=O)c2-c2nc3cc4c(cc3[nH]2)C(=O)N(C2CCN(C)CC2)C4=O)c(OC)c1OC [compound 93] | < 0.5 µM |  | 5 to 15 µM
19 | CN1CCC(N2C(=O)c3cc4nc(-c5c(NC[C@@H](O)COc6cccc(C(F)(F)F)c6)cc[nH]c5=O)[nH]c4cc3C2=O)CC1 [compound 97] | 0.5 to 5 µM |  | > 15 µM
20 | CN1CCC(N2C(=O)c3cc4nc(-c5c(NC[C@@H](O)COc6cccc(Cl)c6F)cc[nH]c5=O)[nH]c4cc3C2=O)CC1 [compound 96] | < 0.5 µM |  | 
21 | O=C1c2cc3nc(-c4c(NC[C@@H](O)c5cccc(Cl)c5)cc[nH]c4=O)[nH]c3cc2C(=O)N1[C@H]1CN2CCC1CC2 [compound 34] | 0.5 to 5 µM |  | 
22 | CN1CCC(N2C(=O)c3cc4nc(-c5c(NC[C@@H](O)COc6ccc7ccccc7c6)cc[nH]c5=O)[nH]c4cc3C2=O)CC1 [compound 88] | 0.5 to 5 µM |  | 
23 | CN1CCC(N2C(=O)c3cc4nc(-c5c(NC[C@@H](O)COc6cccc7ccccc67)cc[nH]c5=O)[nH]c4cc3C2=O)CC1 [compound 87] | < 0.5 µM |  | 
24 | Cc1ccc(OC[C@H](O)CNc2cc[nH]c(=O)c2-c2nc3c(C)c4c(cc3[nH]2)C(=O)N(C2CCN(C)CC2)C4)c(C)c1 [compound 139] | < 0.5 µM | > 15 µM | > 15 µM
25 | Cc1cc(C)n(C[C@H](O)CNc2cc[nH]c(=O)c2-c2nc3cc4c(cc3[nH]2)C(=O)N(C2CCN(C)CC2)C4=O)n1 [compound 92] | 5 to 15 µM |  | 

Second part, led by results:

Row | IC50 (InsR) | SMILES | IC50 [1] | IC50 [2]
26 | < 0.5 µM | Cc1ccc(OC[C@H](O)CNc2cc[nH]c(=O)c2-c2nc3c(C)c4c(cc3[nH]2)C(=O)N(C2CCN(C)CC2)C4=O)c(C)c1 [compound 110] |  | 
27 | < 0.5 µM | Cc1ccc(OC[C@H](O)CNc2cc[nH]c(=O)c2-c2nc3c(C)c4c(cc3[nH]2)CN(C2CCN(C)CC2)C4=O)c(C)c1 [compound 140] | > 15 µM | 5 to 15 µM
28 | < 0.5 µM | Cc1ccc(OC[C@@H](O)CNc2cc[nH]c(=O)c2-c2nc3cc4c(cc3[nH]2)C(=O)N([C@H]2CCN(C)C2)C4=O)c(C)c1 [compound 106] |  | 
29 | < 0.5 µM | CCc1cc(C)ccc1OC[C@H](O)CNc1cc[nH]c(=O)c1-c1nc2cc3c(cc2[nH]1)CN(C1CCN(C)CC1)C3=O [compound 141] | > 15 µM | > 15 µM
30 | < 0.5 µM | Cc1c(Cl)cccc1OC[C@H](O)CNc1cc[nH]c(=O)c1-c1nc2cc3c(cc2[nH]1)C(=O)N(C1CCN(C)CC1)C3=O [compound 94] |  | > 15 µM
31 | < 0.5 µM | Cc1ccc(OCC(O)CNc2cc[nH]c(=O)c2-c2nc3cc4c(cc3[nH]2)C(=O)N(CC2CCN(CCO)CC2)C4=O)c(C)c1 (stereo not drawn) [compound 37] |  | 
32 | < 0.5 µM | CN1CCC(N2C(=O)c3cc4nc(-c5c(NC[C@@H](O)c6cccc(Cl)c6)cc[nH]c5=O)[nH]c4cc3C2=O)CC1 [compound 1] |  | 5 to 15 µM
33 | < 0.5 µM | CN1CCC(N2C(=O)c3cc4nc(-c5c(NC[C@@H](O)COc6c(F)ccc(Cl)c6F)cc[nH]c5=O)[nH]c4cc3C2=O)CC1 [compound 95] |  | 5 to 15 µM
34 | < 0.5 µM | Cc1ccc(OC[C@H](O)CNc2cc[nH]c(=O)c2-c2nc3cc4c(cc3[nH]2)CN(C2CCN(C)CC2)C4=O)c(C)c1 [compound 130] | > 15 µM | > 15 µM
35 | < 0.5 µM | Cc1ccc(OC[C@@H](O)CNc2cc[nH]c(=O)c2-c2nc3cc4c(cc3[nH]2)C(=O)N([C@@H]2CCN(C)C2)C4=O)c(C)c1 [compound 107] |  | 
36 | < 0.5 µM | Cc1ccc(OC[C@H](O)CNc2cc[nH]c(=O)c2-c2nc3cc4c(cc3[nH]2)C(=O)N(C2CCNCC2)C4=O)c(C)c1 [compound 142] | 5 to 15 µM | 5 to 15 µM
37 | < 0.5 µM | Cc1ccc(OC[C@H](O)CNc2cc[nH]c(=O)c2-c2nc3cc4c(cc3[nH]2)C(=O)N(C2CCN(C)CC2)C4=O)c(C)c1 [compound 59] |  | 5 to 15 µM
38 | < 0.5 µM | Cc1ccc(OC[C@H](O)CNc2cc[nH]c(=O)c2-c2nc3cc4c(c(C)c3[nH]2)CN(C2CCN(C)CC2)C4=O)c(C)c1 [compound 132] | > 15 µM | > 15 µM
39 | < 0.5 µM | Cc1cc(C)c(OC[C@H](O)CNc2cc[nH]c(=O)c2-c2nc3cc4c(cc3[nH]2)C(=O)N(C2CCN(C)CC2)C4=O)c(C)c1 [compound 98] |  | 

Source: US8063225B2, “Tricyclic compound derivatives useful in the treatment of neoplastic diseases, inflammatory disorders and immunomodulatory disorders” (Chembridge Corporation, priority 2006, dated 2011)
